Source: the supplement of paper PMC4862054

Tests used:
[1] = system: BT-549; conditions: 72 h
Outline: (§1)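 Per-plate normalisation used 0.1 % DMSO and a positive kill control. Breast cancer cell lines (20 µl suspension) were seeded into 384-well plates containing compound at 5 concentrations in 10-fold steps across a compound-specific 10,000-fold range, incubated for 72 h, and read first for CellTox Green fluorescence (485/520 nm), then for CellTiter-Glo luminescence. EC50 was fitted from the dose-response curves and censored at the top concentration.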

[2] = system: CAL-148; conditions: 72 h
Outline: as §1

[3] = system: CAL-51; conditions: 72 h
Outline: as §1

[4] = system: CAL-85-1; conditions: 72 h
Outline: as §1

[5] = system: DU-4475; conditions: 72 h
Outline: as §1

[6] = system: HCC1143; conditions: 72 h
Outline: as §1

[7] = system: HCC1937; conditions: 72 h
Outline: as §1

[8] = system: HDQ-P1; conditions: 72 h
Outline: as §1

[9] = system: Hs578T; conditions: 72 h
Outline: as §1

[10] = system: MDA-MB-436; conditions: 72 h
Outline: as §1

[11] = system: MDA-MB-453; conditions: 72 h
Outline: as §1

[12] = system: MFM-223; conditions: 72 h
Outline: as §1

[13] = system: SK-BR-3; conditions: 72 h
Outline: as §1

[14] = system: CAL-85-1; conditions: 72 h; remark: listed apart in the source
Outline: (§2)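 For viability, cells received 2.5 µl CellTiter-Blue for 2 h at 37 °C and fluorescence was read at 560/590 nm. Before this, breast cancer cell lines in 20 µl suspension had been incubated for 72 h on 384-well plates pre-loaded with compound dissolved in 5 µl medium. EC50 was obtained from a percent-inhibition dose-response fit censored at the highest concentration, after normalisation of each plate to vehicle and a positive kill control; rows with a zero drug sensitivity score were discarded.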

[15] = system: DU-4475; conditions: 72 h; remark: listed apart in the source
Outline: as §2

[16] = system: HDQ-P1; conditions: 72 h; remark: listed apart in the source
Outline: as §2

[17] = system: MDA-MB-453; conditions: 72 h; remark: listed apart in the source
Outline: as §2

[18] = system: BT-474; conditions: 72 h
Outline: as §2

[19] = system: BT-549; conditions: 72 h; remark: listed apart in the source
Outline: as §2

[20] = system: CAL-120; conditions: 72 h
Outline: as §2

[21] = system: HCC1143; conditions: 72 h; remark: listed apart in the source
Outline: as §2

[22] = system: Hs578T; conditions: 72 h; remark: listed apart in the source
Outline: as §2

[23] = system: MDA-MB-436; conditions: 72 h; remark: listed apart in the source
Outline: as §2

[24] = system: MDA-MB-468; conditions: 72 h
Outline: as §2

[25] = system: MFM-223; conditions: 72 h; remark: listed apart in the source
Outline: as §2

[26] = system: SK-BR-3; conditions: 72 h; remark: listed apart in the source
Outline: as §2

[27] = system: Hs578T; conditions: 72 h; remark: listed apart in the source
Experimental: (§3)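 Drug sensitivity and resistance testing (DSRT) of breast cancer cell lines in 384-well plates, 5 concentrations in 10-fold dilutions over a compound-specific 10,000-fold range. After 72 h, cytotoxicity was read by CellTox Green fluorescence and viability by CellTiter-Glo luminescence (multiplexed), normalised to DMSO and benzethonium chloride controls. EC50 is the inflection point of the fitted dose-response curve (bottom asymptote free, so it can be relative for partial curves) and is censored at the highest tested concentration. Rows with DSS 0 (no meaningful response) were excluded.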

[28] = system: HCC1937; assay: drug sensitivity score (DSS), CellTox Green (DSS (AUC-based score)); higher = stronger drug effect (viability inhibition or cytotoxicity); extreme values may be limits of the assay; conditions: incubation time: 72 h
Outline: (§4)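 Normalisation on every plate relied on 0.1 % DMSO and a positive kill control. The plates, 384-well format, held compound at 5 concentrations 10-fold apart across a compound-specific 10,000-fold range, and breast cancer cell lines in 20 µl suspension were incubated on them for 72 h before CellTox Green and then CellTiter-Glo readings. The drug sensitivity score derives from the area under the fitted dose-response curve.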

[29] = system: Hs578T; assay: as above; conditions: incubation time: 72 h
Outline: as §4

[30] = system: MDA-MB-231; assay: as above; conditions: incubation time: 72 h
Outline: as §4

[31] = system: MCF-10A; conditions: 72 h
Outline: as §1

[32] = system: HCC1937; conditions: 72 h; remark: listed apart in the source
Outline: as §2

[33] = system: MDA-MB-231; conditions: 72 h
Outline: as §2

[34] = system: CAL-85-1; conditions: 72 h; remark: listed apart in the source
Experimental: as §3

[35] = system: HCC1599; conditions: 72 h
Outline: as §2

| EC50, CellTiter-Glo [1] | EC50, CellTiter-Glo [6] | EC50, CellTiter-Glo [7] | EC50, CellTiter-Glo [10] | EC50, CellTiter-Glo [11] | EC50, CellTiter-Glo [13] | EC50, CellTiter-Blue viability [17] | EC50, CellTiter-Blue viability [18] | EC50, CellTiter-Blue viability [19] | EC50, CellTiter-Blue viability [21] | EC50, CellTiter-Blue viability [23] | EC50, CellTiter-Blue viability [24] | EC50, CellTiter-Blue viability [26] | EC50, CellTiter-Blue viability [32] | EC50, CellTiter-Blue viability [33] | EC50, CellTiter-Blue viability [35] | SMILES | EC50, CellTiter-Glo [2] | EC50, CellTiter-Glo [3] | EC50, CellTiter-Glo [4] | EC50, CellTiter-Glo [5] | EC50, CellTiter-Glo [8] | EC50, CellTiter-Glo [9] | EC50, CellTiter-Glo [12] | EC50, CellTiter-Blue viability [14] | EC50, CellTiter-Blue viability [15] | EC50, CellTiter-Blue viability [16] | EC50, CellTiter-Blue viability [20] | EC50, CellTiter-Blue viability [22] | EC50, CellTiter-Blue viability [25] | EC50, CellTox Green [27] | drug sensitivity score [28] | drug sensitivity score [29] | drug sensitivity score [30] | EC50, CellTiter-Glo [31] | EC50, CellTox Green [34] |
| --- | --- | --- | --- | --- | --- | --- | --- | --- | --- | --- | --- | --- | --- | --- | --- | --- | --- | --- | --- | --- | --- | --- | --- | --- | --- | --- | --- | --- | --- | --- | --- | --- | --- | --- | --- |
| 0.00032 µM | 0.0008 µM | 0.00046 µM | 0.00671 µM | 0.0015 µM | 0.00046 µM | 0.00037 µM | 0.00067 µM | 0.00018 µM | 0.00162 µM | 0.00505 µM | 0.00039 µM | 0.00092 µM | – | – | – | CO[C@H]1C[C@@H]2CC[C@@H](C)[C@@](O)(O2)C(=O)C(=O)N2CCCC[C@H]2C(=O)O[C@H]([C@H](C)C[C@@H]2CC[C@@H](OC(=O)C(C)(CO)CO)[C@H](OC)C2)CC(=O)[C@H](C)/C=C(\C)[C@@H](O)[C@@H](OC)C(=O)[C@H](C)C[C@H](C)/C=C/C=C/C=C/1C [Temsirolimus] | 0.00128 µM | 0.00065 µM | 0.00067 µM | 0.00142 µM | 0.018 µM | 0.00015 µM | 0.00077 µM | 0.00011 µM | 0.00216 µM | 0.00134 µM | 0.00107 µM | 0.001 µM | 0.00018 µM | 0.00128 µM | 0 | 22.6 | 0 | – | – |
| > 1 µM | – | – | – | 0.0547 µM | 0.0107 µM | 0.0457 µM | 0.0209 µM | 2.7 µM | – | 5.41 µM | 1.16 µM | 0.00753 µM | 1.91 µM | 2.01 µM | – | CN(C)C/C=C/C(=O)Nc1cc2c(Nc3ccc(F)c(Cl)c3)ncnc2cc1O[C@H]1CCOC1 [Afatinib] | 0.0241 µM | – | 0.0352 µM | – | 0.00948 µM | – | – | 0.147 µM | – | 0.398 µM | 0.836 µM | 4.26 µM | 3.74 µM | – | 1.72 | 1.68 | 0 | 0.00658 µM | 0.0197 µM |
| – | – | – | – | – | – | – | – | – | – | – | – | – | – | – | – | O=C(c1ccc(C(=O)N2CCC(N3CCCC3)CC2)c(Nc2ccccc2)c1)N1CCC(N2CCCC2)CC1 [UNC1215] | – | – | – | – | – | – | – | – | – | – | – | – | – | – | 0 | – | 0 | – | – |
| – | – | – | – | – | – | 0.0111 µM | 1.16 µM | 0.918 µM | 0.0687 µM | 0.145 µM | 0.0762 µM | 0.0149 µM | 0.0246 µM | 0.502 µM | 2.05 µM | COc1cc(Nc2ncc3c(n2)-c2ccc(Cl)cc2C(c2c(F)cccc2OC)=NC3)ccc1C(=O)O [MLN8237] | – | – | – | – | – | – | – | 0.0296 µM | 0.0575 µM | 0.051 µM | 0.593 µM | 0.0418 µM | 0.388 µM | – | – | – | – | – | – |
| – | – | – | – | – | – | – | – | – | – | – | – | – | – | – | – | Clc1ccc(C(c2ccccc2Cl)C(Cl)Cl)cc1 (centres undefined) [Mitotane] | – | – | – | – | – | – | – | – | – | – | – | – | – | – | 1.4 | 0 | – | – | – |
